{"source": "patent US20070021325A1", "about": "“Drug formulation containing a solubilizer for enhancing solubility, absorption, and permeability” (Mediplex Corporation, priority 2005, published 2007)", "assay": "Oral absorption of encapsulated DMSO-bound heparin-DOCA in monkeys (FIG. 5)", "assay_type": "in vivo", "conditions": "in buffer, 100 mg/kg (control)", "description": "DMSO-bound heparin-DOCA prepared according to the method of Example 1 was encapsulated and then administered orally to monkeys at either 5 mg/kg or 10 mg/kg dosages. As a control, heparin in buffer was orally administered at 100 mg/kg."}
{"substance": "heparin", "values": [{"measurement": "absorption after oral administration", "result": "negligible"}]}
